This is an account of results in patent US6649609B2, “Benzimidazole derivatives and pharmaceutical compositions comprising these compounds” (Neurosearch A/S, priority 1999, dated 2003).

Series [1] has as its system clonic convulsions induced by pentylenetetrazol (PTZ). Nature of the series: PTZ clonic convulsions. Type of series: in vivo. Conditions: female NMRI mice; for ED100: i.v., dose increasing the PTZ threshold to 100 mg PTZ/kg (linear regression); for ptz threshold at 30 mg/kg: test substance 30 mg/kg i.v., PTZ infused after 5 min, vehicle threshold 37-39 mg PTZ/kg. As for the experimental part:
The purpose of this test is to show antagonism of clonic convulsions induced by pentylenetetrazol (PTZ). PTZ induces clonic convulsions in mice after i.v. infusion. Antagonism of PTZ-induced convulsions is a measure for the agonistic character of ligands for the benzodiazepine recognition site.
Female NMRI mice (Bomholdtgaard, Ry), 20 g, 6 mice in each group are administered i.v. with vehicle or test substance. After five minutes the PTZ-solution is infused intravenously at a speed of 0.7 ml/minute through a cannula placed in the tail vein. The time from initiation of the infusion to appearance of clonic convulsions is recorded.
The dose of PTZ required for inducing convulsion in each mouse is calculated as PTZ/kg body weight. Means ±sd for each experimental group of 6 mice is calculated. ED100 is calculated by linear regression expressing the dose increasing the PTZ threshold to 100 mg PTZ/kg.
The threshold of vehicle treated controls is in the range of 37-39 mg PTZ/kg. As a control in each series of experiments PTZ is infused into 6 vehicle treated mice.

The test system of series [2] is GABAA receptor-ion channel complex (forebrain). Nature of the series: In vivo inhibition of 3H-FNM binding. Conditions: female NMRI mice, test substance i.v., inhibition of specific [3H]FNM binding in forebrain. Further details: species or system mouse. How it is done: 13B: In vivo inhibition of ^3H-FNM binding
[^3H]FNM can also be used for in vivo receptor labelling studies in mouse. Accumulation of [^3H]FNM binding will occur all over the brain as GABAA receptors are widely distributed.
All test substances used are solutions prepared in 10% TWEEN 80. Groups of three female NMRI mice (25 g) are injected i.v. via the tail vein with 5.0 μCi of [3H]FNM in 0.2 ml saline. Fifteen min after injection with [^3H]FNM the test substance is administered i.v. Twenty min after injection with [^3H]FNM, mice are killed by decapitation, the forebrains rapidly excised and homogenized in 12 ml of ice-cold 50 mM Tris-citrate, pH 7.1 using an Ultra-Turrax homogenizer. Three aliquots of 1 ml are immediately filtered through GF/C glass fibre filters and washed with 2×5 ml of ice-cold buffer. The amounts of radioactivity on the filters and in 200 μl of the homogenate are determined by conventional scintillation counting. Groups of untreated mice serves as controls. To determine non-specific binding groups of mice are injected with Clonazepam (25 mg/kg) i.p. 10 min before [3H]FNM injection. Specific binding is the amount of binding in controls minus the amount of binding in Clonazepam treated mice.
The ED50 value is determined from dose response curves. […] [formula]
where Co is specific binding in controls and Cx is the specific binding in mice treated with test substance.

For another series, the system named is pigs. As to the kind of experiment: Evaluation of efficacy: anaesthesia after bolus injection. In kind it is in vivo. Conditions: pigs 25-30 kg; for Induction Time / Maintained anaesthesia / Normalising time following awakening: i.v. bolus, dose per compound as in Table 10 (0.03-3 mg/kg). As for the experimental part:
Aqueous solutions of the test substances (50 mg/ml isotonic glucose) were administered to pigs (25-30 kg) as bolus injections. The actual dose of each substance is included in the table below.
These observations are compiled in Table 10 below. This table also provides comparative data for compounds of the prior art (WO 98/17651).

The target in series [3] is benzodiazepine receptor (GABAA receptor complex), cerebral cortex membranes. As to the kind of experiment: In vitro inhibition of 3H-flunitrazepam (3H-FNM) binding. Particulars: inhibition of specific 3H-FNM (1 nM) binding, rat cerebral cortex membranes. How it is done: The GABA recognition site and the benzodiazepine modulatory unit can selectively be labelled with ^3H-muscimol and ^3H-flunitrazepam, respectively.
13A: In vitro inhibition of ^3H-flunitrazepam (^3H-FNM) binding
Preparations are performed at 0-4° C. unless otherwise indicated. Cerebral cortex from male Wistar rats (150-200 g) is homogenised for 5-10 sec in 20 ml Tris-HCl (30 mM, pH 7.4) using an Ultra-Turrax homogeniser. The suspension is centrifuged at 27,000× g for 15 min and the pellet is washed three times with buffer (centrifuged at 27,000× g for 10 min). The washed pellet is homogenized in 20 ml of buffer and incubated on a water bath (37° C.) for 30 min to remove endogenous GABA and then centrifuged for 10 min at 27,000× g. The pellet is then homogenized in buffer and centrifuged for 10 min at 27,000× g. The final pellet is resuspended in 30 ml buffer and the preparation is frozen and stored at −20° C.
The membrane preparation is thawed and centrifuged at 2° C. for 10 min at 27,000× g. The pellet is washed twice with 20 ml 50 mM Tris-citrate, pH 7.1 using an Ultra-Turrax homogeniser and centrifuged for 10 min at 27,000× g. The final pellet is resuspended in 50 mM Tris-citrate, pH 7.1 (500 ml buffer per g of original tissue), and then used for binding assays. Aliquots of 0.5 ml tissue are added to 25 μl of test solution and 25 μl of ^3H-FNM (1 nM, final concentration), mixed and incubated for 40 min at 2° C., Non-specific binding is determined using Clonazepam (1 μM, final concentration). After incubation the samples are added 5 ml of ice-cold buffer and poured directly onto Whatman GFIC glass fibre filters under suction and immediately washed with 5 ml ice-cold buffer. The amount of radioactivity on the filters is determined by conventional liquid scintillation counting. Specific binding is total binding minus non-specific binding.
The test value will be given as IC50 (the concentration (μM) of the test substance which inhibits the specific binding of ^3H-FNM by 50%). [formula]
Co is specific binding in control assays, and
Cx is the specific binding in the test assay.
(The calculations assume normal mass-action kinetics).

Molecules are shown by their SMILES. Several values for one entry are separate records, joined by “and”; a condition that tells them apart may be missing. Equal values may be shown once. Marks after values point to notes of the source that are not given here.

What is called IC50 is the concentration at which inhibition is half-maximal. A lower IC50 goes with inhibition by little substance. What is called melting point is the temperature of the solid-liquid transition.

For `CCOC(=O)CN1CCN(c2cccc(-n3cnc4cc(C(=O)OCCOC)ccc43)c2)CC1` [Compound 1b, 2-Methoxyethyl 1-(3-(4-(ethoxy-carbonyl-methyl)-1-piperazinyl)-phenyl)-benzimidazole-5-carboxylate], in series [1], the ED100 was 1.6 mg/kg and the “ptz threshold at 30 mg/kg” value amounted to 200 mg/kg. Also, in series [2], the “In vivo binding ED50” value stood at 0.9 mg/kg. Besides, in the series with pigs, the “Induction Time” value came out at 1.3 min, the Maintained anaesthesia is on record as 10^ min and the “Normalising time following awakening” value was determined as 15 min. The compound further came in with an IC50 in series [3] of 260 nM.
With `COC(=O)c1cn(-c2cccc(-n3cnc4cc(-c5ccoc5)ccc43)c2)cn1` [Compound 7c, 5-(3-Furanyl)-1-(3-(4-methoxycarbonyl-1-imidazolyl)-phenyl)-benzimidazole], the melting point was 221 to 223 °C. Also, in series [1], the ED100 was 20 mg/kg and the “ptz threshold at 30 mg/kg” value turned out to be 110 mg/kg. Further, the “In vivo binding ED50” value in series [2] stood at 0.43 mg/kg. In addition, the half-maximal inhibitory concentration (IC50) in series [3] turned out to be 0.7 nM.
On to `CCOC(=O)CN1CCC(c2cccc(-n3cnc4cc(-c5ccoc5)ccc43)c2)CC1` [Compound 7g, 5-(3-Furanyl)-1-(3-(1-ethoxycarbonylmethyl-4-piperidyl)-phenyl)-benzimidazole], for which the melting point is 114.5 to 115 °C and 114 to 115 °C. Further, in series [1], the ED100 came to 1.2 mg/kg and the “ptz threshold at 30 mg/kg” value was found to be 200 mg/kg. In addition, the “In vivo binding ED50” value in series [2] was 1.4 mg/kg. Besides, the 50% inhibitory concentration (IC50) in series [3] is 0.9 nM.
With `CCOC(=O)N1CCN(c2cccc(-n3cnc4cc(-c5ccoc5)ccc43)c2)CC1` [Compound 7i, 5-(3-Furanyl)-1-(3-(1-ethoxycarbonyl-4-piperazinyl)-phenyl)-benzimidazole], the melting point was 131 to 132 °C. Moreover, in series [1], the ED100 worked out at 2.5 mg/kg and the “ptz threshold at 30 mg/kg” value stood at 140 mg/kg. Moreover, the “In vivo binding ED50” value in series [2] is 1.8 mg/kg. In series [3], this compound showed a half-maximal inhibitory concentration (IC50) of 0.8 nM.
`CC(=O)N1CCN(CCOC(=O)c2cccc(-n3cnc4cc(-c5ccoc5)ccc43)c2)CC1` [Compound 7j, 2-(1-Acetyl-4-piperazinyl)-ethyl 3-(5-(3-furanyl)-1-benzimidazolyl)-benzoate]: in series [1], the ED100 stood at 13 mg/kg and the “ptz threshold at 30 mg/kg” value worked out at 170 mg/kg. Further, the “In vivo binding ED50” value in series [2] was 1.9 mg/kg. Also, the “Observation on anaesthesia (footnote to Maintained anaesthesia)” value with pigs (bolus 3 mg/kg) was “^aUneasy sleep”. Moreover, in the series with pigs, the “Induction Time” value amounted to 0.5 min, the Maintained anaesthesia was 8^a min and the “Normalising time following awakening” value came to 20 min. For the same compound, the IC50 in series [3] was 2.8 nM.
